From the supplement of paper PMC8149375

What was measured:
Details in all cases: treatment: drug + dasatinib (fixed dose, not stated); 5 days
UO-31 [1] = assay: AUC of dose-response viability curve, drug + dasatinib, normalised to DMSO (arbitrary (AUC of normalised viability)); higher = less growth inhibition
Protocol: (§1)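 Primary HTS combination arm: 8 RCC cell lines treated with 8 doses (up to 10 uM) of each library drug plus a fixed dose of dasatinib (dose not stated) for 5 days; viability read by CellTiter-Glo and normalised to DMSO. GI50 was fitted with XLfit, AUC is the area under the dose-response curve, and minimum viability is the lowest fraction of DMSO viability across doses.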

ACHN [2] = assay: as above
Protocol: as §1

769-P [3] = assay: as above
Protocol: as §1

786-O [4] = assay: as above
Protocol: as §1

SN12C [5] = assay: as above
Protocol: as §1

TK-10 [6] = assay: as above
Protocol: as §1

A498 [7] = assay: as above
Protocol: as §1

CAKI-1 [8] = assay: as above
Protocol: as §1

UO-31 [9] = assay: minimum viability across doses, drug + dasatinib, relative to DMSO (fraction); higher = less growth inhibition
Protocol: as §1

ACHN [10] = assay: as above
Protocol: as §1

769-P [11] = assay: as above
Protocol: as §1

786-O [12] = assay: as above
Protocol: as §1

SN12C [13] = assay: as above
Protocol: as §1

TK-10 [14] = assay: as above
Protocol: as §1

A498 [15] = assay: as above
Protocol: as §1

CAKI-1 [16] = assay: as above
Protocol: as §1

UO-31 [17] = assay: GI50 of drug in presence of dasatinib; higher = less potent
Protocol: as §1

ACHN [18] = assay: as above
Protocol: as §1

769-P [19] = assay: as above
Protocol: as §1

786-O [20] = assay: as above
Protocol: as §1

SN12C [21] = assay: as above
Protocol: as §1

TK-10 [22] = assay: as above
Protocol: as §1

A498 [23] = assay: as above
Protocol: as §1

CAKI-1 [24] = assay: as above
Protocol: as §1

Structure (SMILES)	AUC of dose-response viability curve (UO-31 [1])	AUC of dose-response viability curve (ACHN [2])	AUC of dose-response viability curve (769-P [3])	AUC of dose-response viability curve (786-O [4])	AUC of dose-response viability curve (SN12C [5])	AUC of dose-response viability curve (TK-10 [6])	AUC of dose-response viability curve (A498 [7])	AUC of dose-response viability curve (CAKI-1 [8])	minimum viability across doses (UO-31 [9])	minimum viability across doses (ACHN [10])	minimum viability across doses (769-P [11])	minimum viability across doses (786-O [12])	minimum viability across doses (SN12C [13])	minimum viability across doses (TK-10 [14])	minimum viability across doses (A498 [15])	minimum viability across doses (CAKI-1 [16])	GI50 of drug (UO-31 [17]) [µM]	GI50 of drug (ACHN [18]) [µM]	GI50 of drug (769-P [19]) [µM]	GI50 of drug (786-O [20]) [µM]	GI50 of drug (SN12C [21]) [µM]	GI50 of drug (TK-10 [22]) [µM]	GI50 of drug (A498 [23]) [µM]	GI50 of drug (CAKI-1 [24]) [µM]
Cc1cc2c(F)c(Oc3ncnn4cc(OC[C@@H](C)O)c(C)c34)ccc2[nH]1 + Cc1nc(Nc2ncc(C(=O)Nc3c(C)cccc3Cl)s2)cc(N2CCN(CCO)CC2)n1 [dasatinib]	3.43	1.8	2.59	2.65	2.39	2.68	3.38	2.3	0.528	0.343	0.682	0.656	0.621	0.693	0.789	0.179	> 10	1.04	> 10	> 10	> 10	> 10	> 10	6.47
Cc1[nH]c(/C=C2\C(=O)Nc3ccccc32)c(C)c1CCC(=O)O [TSU-68] + Cc1nc(Nc2ncc(C(=O)Nc3c(C)cccc3Cl)s2)cc(N2CCN(CCO)CC2)n1 [dasatinib]	1.95	1.94	2.42	2.39	2.32	2.77	3.61	2.29	1.07	0.512	0.66	0.61	0.609	0.74	0.699	0.595	> 10	> 10	> 10	> 10	> 10	> 10	> 10	> 10
Cc1cc(C)c(/C=C2\C(=O)Nc3ccccc32)[nH]1 [Semaxanib (SU5416)] + Cc1nc(Nc2ncc(C(=O)Nc3c(C)cccc3Cl)s2)cc(N2CCN(CCO)CC2)n1 [dasatinib]	4.67	1.99	2.48	2.4	2.46	2.54	3.96	2.21	1.2	0.472	0.658	0.606	0.666	0.657	1.01	0.584	> 10	> 10	> 10	> 10	> 10	> 10	> 10	> 10
Cc1cccc(-c2nc(C(C)(C)C)[nH]c2-c2ccc3nccnc3c2)n1 + Cc1nc(Nc2ncc(C(=O)Nc3c(C)cccc3Cl)s2)cc(N2CCN(CCO)CC2)n1 [dasatinib]	4.8	2.06	2.34	2.16	2.18	2.51	3.7	2.29	0.824	0.559	0.476	0.517	0.317	0.61	0.411	0.486	> 10	> 10	7.81	> 10	3.77	> 10	8.41	7.37
CC1(C)CNc2cc(NC(=O)c3cccnc3NCc3ccncc3)ccc21.O=P(O)(O)O.O=P(O)(O)O [Motesanib Diphosphate] + Cc1nc(Nc2ncc(C(=O)Nc3c(C)cccc3Cl)s2)cc(N2CCN(CCO)CC2)n1 [dasatinib]	3.93	2.3	2.34	2.74	2.56	2.87	3.26	2.39	0.944	0.512	0.599	0.714	0.711	0.724	0.877	0.542	> 10	> 10	> 10	> 10	> 10	> 10	> 10	> 10
CC(C)c1ccccc1Cc1cc(C(=O)Nc2ccc(S(=O)(=O)c3ccccc3C(C)(C)C)cc2)c(O)c(O)c1O [TW-37] + Cc1nc(Nc2ncc(C(=O)Nc3c(C)cccc3Cl)s2)cc(N2CCN(CCO)CC2)n1 [dasatinib]	4.4	1.58	2.19	2.07	2.6	2.18	3.28	1.77	0.416	0.0767	0.0407	0.124	0.519	0.325	0.773	0.0425	9.77	0.344	1.57	1.21	> 10	3.06	> 10	0.506
CN(C)C1CCN(C(=O)c2ccc(NC(=O)Nc3ccc(-c4nc(N5CCOCC5)nc(N5CCOCC5)n4)cc3)cc2)CC1 + Cc1nc(Nc2ncc(C(=O)Nc3c(C)cccc3Cl)s2)cc(N2CCN(CCO)CC2)n1 [dasatinib]	3.11	1.62	2.27	1.23	1.04	1.91	1.37	1.74	0.117	0.125	0.147	0.00554	0.107	0.112	0.0743	0.0335	1.68	0.165	2.87	0.0498	0.0192	0.306	0.0563	0.302
